Data: ChEMBL document CHEMBL3632551, “Kynurenine Monooxygenase (KMO) Inhibitors for the Treatment of Acute Pancreatitis and Neurodegenerative Disorders” (ACS Med Chem Lett, 2015)

Biological target: Kynurenine 3-monooxygenase (Homo sapiens, UniProt O15229)
Test: Inhibition of kynurenine monooxygenase (unknown origin) by MS rapidfire assay

Sequence of Kynurenine 3-monooxygenase (O15229 whole entry): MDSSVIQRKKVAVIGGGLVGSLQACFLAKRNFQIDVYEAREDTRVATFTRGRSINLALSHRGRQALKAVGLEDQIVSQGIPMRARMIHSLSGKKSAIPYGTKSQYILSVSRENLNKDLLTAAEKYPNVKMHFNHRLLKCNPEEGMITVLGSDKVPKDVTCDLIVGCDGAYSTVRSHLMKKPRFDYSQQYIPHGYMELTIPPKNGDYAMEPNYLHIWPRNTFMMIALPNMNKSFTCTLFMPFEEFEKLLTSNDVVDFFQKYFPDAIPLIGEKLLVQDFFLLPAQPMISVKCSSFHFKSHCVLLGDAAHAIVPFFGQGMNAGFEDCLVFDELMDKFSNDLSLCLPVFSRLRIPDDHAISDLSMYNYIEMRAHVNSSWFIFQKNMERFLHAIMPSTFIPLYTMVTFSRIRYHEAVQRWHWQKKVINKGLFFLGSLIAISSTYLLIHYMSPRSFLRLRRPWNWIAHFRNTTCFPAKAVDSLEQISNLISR

SMILES	IC50
C[C@@H](Oc1cc2oc(=O)n(CCC(=O)O)c2cc1Cl)c1cccnn1	< 0.794 µM
Cn1ccnc1COc1cc2oc(=O)n(CCC(=O)O)c2cc1Cl	< 0.794 µM
